Assay results reported in patent publication US20070134353A1, “PHYTOESTROGENIC COMPOSITION COMPRISING AN EXTRACT OF CHINESE LICORICE ROOT, ISOLIQUIRITIN OR LIQUIRITIN” (priority 2004, published 2007).
“Also recorded” adds a separate entry of the source.

Columns and labels:
[1] = system: MCF-7 breast cancer cells; experiment: Inhibitory effect on MCF-7 cell line proliferation (DNA content, OD 260 nm); type: cell-based; conditions: for inhibition of proliferation of MCF-7 breast cancer cell line: 100 μg/ml; for inhibition of proliferation of cancer cells including breast cancer cells: summary statement, no concentration given
Method: (§1) 5×10^4 cells/ml of MCF-7 cells (ATCC HTB-22) were placed in a 6-well culture plate and allowed to be attached for 24 hours. Phenol red-free D-medium supplemented with 5% fetal bovine serum (FBS) and 3 Ml/l PSN antibiotic mixture (Gibco, USA) was added thereto, followed by incubation in an incubator kept at 5% CO2, 95% air, 100% humidity, 37° C. for 24 hours. After incubation for 24 hours, the medium was removed and the cultured cells were incubated in phenol red-free D-medium supplemented with 5% DCC-FBS (dextran-coated charcoal-stripped FBS; […] During the incubation, the test media were changed once. After 72 hours, the cells were treated with 1 Ml of 0.1 N NaOH (Sigma Co.) and collected to examine DNA content with a spectrophotometer at OD 260 nm.

[2] = system: uterus and vagina of immature Sprague-Dawley rats; experiment: Immature uterotrophic assay; type: in vivo; conditions: BPA 40 mg/ml/100 g s.c. 3 days, compared to non-treated control group
Method: 40 immature Sprague-Dawley rats, aged 18 days, were kept in a breeding environment of a temperature of 22±3° C., a relative humidity of 50±10%, a ventilation frequency of 10 to 12 times/hr, light time of 12 hours, an illumination intensity of 150 to 200 lux while being supplied with AIN-76A diet (per 1 kg, thiamine HCI 0.6 g, riboflavin 0.6 g, pyridoxine HCI 0.7 g, […] 3.0 g, calcium pantothenate 1.6 g, folic acid 0.2 g, biotin 0.02 g, Vitamin B12 (0.1%) 1.0 g, Vitamin A palmitate (500,000 IU/g) 0.8 g, Vitamin D3 (400,000 IU/g) 0.25 g, Vitamin E acetate (500 IU/g) 10.0 g, menadion sodium bisulfite 0.08 g, fine powdery sucrose 981.15 g). Each rat was subcutaneously administered once daily with bisphenol A (40 mg/ml/100 g body weight) and the Chinese licorice root EtOH extract (10 mg or 50 mg/ml/100 g body weight) suspended in corn oil for 3 days. 24 hours after the last administration day, the animals were killed by cervical dislocation. […] In particular, the height of the luminal epithelium of the uterus lumen was measured and the luminal epithelium of the vagina was carefully observed. For statistical analysis of data with respect to body weight of test animals and the like which had been measured in the experiment, one-way ANOVA was performed to inspect significance between groups at p=0.05 level. […]

[3] = molecular target: T1, human estrogen receptor (hER) (Homo sapiens, UniProt P03372); experiment: Yeast assay, yeast estrogen response (YER), β-gal reporter; type: cell-based; conditions: for estrogenicity: summary statement, no concentration given
T1 construct: expressed in transfected cells; host or cells: Saccharomyces cerevisiae ER+LYS 8127 (from Dr. Donald P. McDonnell, Duke University)
T1 sequence (P03372 1-595): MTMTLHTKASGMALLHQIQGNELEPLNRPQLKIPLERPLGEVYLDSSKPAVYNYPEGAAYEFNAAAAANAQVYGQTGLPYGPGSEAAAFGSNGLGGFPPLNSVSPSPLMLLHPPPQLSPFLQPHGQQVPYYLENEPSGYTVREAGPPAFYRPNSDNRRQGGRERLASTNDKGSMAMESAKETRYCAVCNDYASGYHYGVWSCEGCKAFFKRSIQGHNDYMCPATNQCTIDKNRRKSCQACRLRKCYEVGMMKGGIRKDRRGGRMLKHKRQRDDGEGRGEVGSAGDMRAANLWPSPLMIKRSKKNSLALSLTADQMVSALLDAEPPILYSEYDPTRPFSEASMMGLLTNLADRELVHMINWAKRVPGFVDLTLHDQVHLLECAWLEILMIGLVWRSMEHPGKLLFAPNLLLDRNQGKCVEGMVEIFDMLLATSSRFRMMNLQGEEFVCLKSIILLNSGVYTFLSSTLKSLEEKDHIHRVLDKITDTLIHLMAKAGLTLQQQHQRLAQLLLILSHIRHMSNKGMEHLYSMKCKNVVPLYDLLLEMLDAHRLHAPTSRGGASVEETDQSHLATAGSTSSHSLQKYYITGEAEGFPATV
Method: Saccharomyces cerevisiae ER+[…], supplied by Dr. Donald P. […] The cultured yeasts were diluted in a medium to a proper concentration and 500 μM of CuSO4 (Sigma, USA) was added thereto. The diluted yeasts were then aliquoted into a 50 Ml tube at a proper level. […] Control group was treated with dimethyl sulfoxide (Sigma, USA). […] The experimental groups and control groups treated with the respective materials were then cultured for 18 hours in a shaking incubator (200 rpm). […] To each well, 100 μl of a Z buffer containing 2 mg/Ml o-nitrophenyl -β-D-galactopyranoside (Sigma, USA), 0.1% lauryl sulfate (Sigma, USA), 50 mM β-mercaptoethanol (BDH chemical LTD, England) and 200 U/Ml oxalyticase (Enzogenetics, USA) was added. After 20 minutes, the coloration was examined using a microplate reader at a wavelength of 420 nm. All the data were analyzed by ANOVA using the statistical program SAS and Dunnett's t-test was performed at significance level P<0.05.

androgen receptor (hAR) = molecular target: T2, androgen receptor (hAR) (Homo sapiens, UniProt P10275); experiment: Yeast assay, yeast androgen response (YAR), β-gal reporter; type: cell-based; conditions: summary statement, no concentration given
T2 construct: expressed in transfected cells; host or cells: recombinant Saccharomyces cerevisiae (from Dr. Donald P. McDonnell, Duke University)
T2 sequence (P10275 1-920): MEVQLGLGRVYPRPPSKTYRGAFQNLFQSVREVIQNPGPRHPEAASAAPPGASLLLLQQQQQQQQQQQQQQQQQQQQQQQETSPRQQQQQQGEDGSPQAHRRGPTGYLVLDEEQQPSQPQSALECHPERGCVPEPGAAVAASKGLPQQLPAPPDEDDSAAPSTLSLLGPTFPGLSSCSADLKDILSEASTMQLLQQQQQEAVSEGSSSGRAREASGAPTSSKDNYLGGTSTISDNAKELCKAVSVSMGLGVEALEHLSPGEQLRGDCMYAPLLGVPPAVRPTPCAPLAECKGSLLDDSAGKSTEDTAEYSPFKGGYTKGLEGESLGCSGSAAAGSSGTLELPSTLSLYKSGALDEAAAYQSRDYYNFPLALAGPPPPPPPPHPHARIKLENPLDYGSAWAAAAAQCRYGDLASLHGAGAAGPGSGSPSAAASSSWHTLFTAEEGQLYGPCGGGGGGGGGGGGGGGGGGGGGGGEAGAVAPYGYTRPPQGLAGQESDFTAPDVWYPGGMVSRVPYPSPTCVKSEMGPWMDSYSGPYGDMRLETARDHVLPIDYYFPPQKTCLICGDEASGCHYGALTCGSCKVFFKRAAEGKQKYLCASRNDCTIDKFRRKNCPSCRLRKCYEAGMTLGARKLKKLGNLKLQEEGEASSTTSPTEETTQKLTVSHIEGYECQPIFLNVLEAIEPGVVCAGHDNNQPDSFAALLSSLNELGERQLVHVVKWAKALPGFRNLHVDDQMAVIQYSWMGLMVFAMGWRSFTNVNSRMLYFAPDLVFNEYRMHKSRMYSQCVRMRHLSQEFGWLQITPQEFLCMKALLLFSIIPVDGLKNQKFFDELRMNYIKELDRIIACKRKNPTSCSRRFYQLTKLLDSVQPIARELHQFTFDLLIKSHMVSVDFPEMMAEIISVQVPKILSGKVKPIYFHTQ

[4] = system: bisphenol-A (BPA) activity in MCF-7 cells; experiment: Inhibitory effect on bisphenol-A (BPA) activity in MCF-7 cells; type: cell-based; conditions: summary statement, no concentration given
Method: as §1, with “nm. Additionally, in order to examine if the Chinese licorice root extract can suppress activity of bisphenol-A (BPA), which is an endocrine disruptor having tumor-inducing activity, in the foregoing experiment, BPA was used instead of the Chinese licorice root extract or the Chinese licorice root extract and BPA were used simultaneously. […]” for “nm.”

Row | Compound | effect on proliferation of MCF-7 cells ([1]; 16 μg/ml, pretest) | thickness of uterine epithelial cells ([2]; FIG. 14) | thickness of vagina epithelial cells ([2]; FIG. 15) | estrogenicity (estrogen response, ER) ([3]; 10 μg/ml and 100 μg/ml, compared with positive control 10^−9 M estradiol, FIG. 2b) | estrogenicity [3] | concentration showing the highest estrogenicity ([3]; tested at 10 μg/ml and 100 μg/ml, FIG. 2b) [µg/mL] | androgenicity (androgen receptor (hAR)) | inhibition of proliferation of MCF-7 breast cancer cell line [1] | inhibitory effect on proliferation of breast cancer cells (MCF-7) ([1]; 300 μg/ml, FIG. 5) | inhibition of proliferation of cancer cells including breast cancer cells [1] | suppression of the activity of bisphenol-A [4]
1 | CC(C)(c1ccc(O)cc1)c1ccc(O)cc1 [BPA, bisphenol-A] | showed the highest effect on proliferation | increased | increased |  |  |  |  |  |  |  | 
2 | O=C(/C=C/c1ccc(O[C@@H]2O[C@H](CO)[C@@H](O)[C@H](O)[C@H]2O)cc1)c1ccc(O)cc1O [isoliquiritin, Isoliquiritin] |  |  |  | higher than that of the positive control estradiol | show estrogenicity | 10 | do not show androgenicity | inhibited proliferation; also recorded: no significant proliferation of breast cancer cells was observed | excellent inhibitory effect | inhibit proliferation of cancer cells | suppress the activity of bisphenol-A
3 | Liquiritin |  |  |  |  | show estrogenicity |  | do not show androgenicity | inhibited proliferation |  | inhibit proliferation of cancer cells | suppress the activity of bisphenol-A
